Values of other authors in US20220079889A1, “USE OF CANNABANOIDS IN THE TREATMENT OF PROLIFERATIVE DIABETIC RETINOPATHY” (VERDANT PHARMACEUTICALS, LLC, priority 2020, published 2022).

Conditions: typical value; cited from earlier work

Compound | time of persistence in the target neovasculature
CC(=O)[O-].CC(=O)[O-].CCc1c(CC)c2cc3nc(cnc4cc(OCCOCCOCCOC)c(OCCOCCOCCOC)cc4ncc4nc(cc1[n-]2)C(CCCO)=C4C)C(C)=C3CCCO.O.[Lu+3] [lutetium texaphyrin] | about twenty
C=Cc1c(C)c2cc3nc(c(CC(=O)N[C@@H](CC(=O)O)C(=O)O)c4[nH]c(cc5nc(cc1[nH]2)C(C)=C5CC)c(C)c4C(=O)O)[C@@H](CCC(=O)O)[C@@H]3C [N-aspartyl chlorin e6] | about twenty
benzoporphyrin derivative [bcnzoporphyrin derivative] | about fifty
